Patent publication US7230033B2, “Pest control compositions and methods for their use” (United States of America as represented by the Secretary of …, priority 2000, dated 2007)

Key:
[1] = test system: ticks, fleas, formicids and termites; assay: Persistence of biocidal activity in vials treated with 2% solutions (Example 5); assay type: in vivo; details: at 11 weeks
Description: (§1) Samples of the compounds listed below were obtained as described in Example 1, and screened for biocidal activities against nymphal Ixodes scapularis. In this example, 2% acetone solutions (wt/vol) of the compounds were applied to inner surfaces of 2-dram friction cap vials. Vials and caps were treated then allowed to dry for a minimum of 4 hours before placing 10 nymphs in each container. These same vials were used to challenge additional nymphs and adult I. scapularis ticks and adult Xenopsylla cheopis fleas through five weeks to observe any possible residual activity.
Persistence of biocidal activity was determined for nootkatone and valencene-11,12-epoxide by using the vials as treated with the 2% solutions of Example 2. This bioassay employed groups of ticks, fleas, formicids and termites using a method similar to that described in Example 2. […] At 11 weeks, the biocidal activity began to dissipate below the 100% mortality level.

[2] = test system: adult Xenopsylla cheopis fleas; assay: Treated-vial biocidal screening with 2% acetone solutions (Example 2), adult fleas, residual; assay type: in vivo; details: treated vials sat 5 wk; arthropods added for the final 24 h
Description: as §1
(§2) Numbers in parentheses refer to length of treatment in terms of hours (h) or weeks (wk). Data is presented in terms of number killed/number tested. For test periods longer than 24 hours, the treated vials were allowed to sit for the stated period after drying (72 h, 4 wk, or 5 wk) and each group of arthropods was added to the vials for the final 24 h of the test period.

[3] = test system: Aedes aegypti; assay: Mosquito susceptibility, serial dilutions (Example 8); details: in vivo
[4] = test system: nymphal Ixodes scapularis; assay: Treated-vial biocidal screening with 2% acetone solutions (Example 2), tick nymphs; assay type: in vivo; details: treated vials sat 72 h; arthropods added for the final 24 h
Description: as §1, §2

[5] = test system: ticks, fleas, and mosquitoes; assay: Residual activity, general statements (Examples 9, 17); assay type: in vivo; details: ticks
[6] = test system: Ixodes scapularis nymphs; assay: Residual activity, aged treated vials, ticks; assay type: in vivo
Description: (§3) Briefly, groups of 10 nymphal I. scapularis and X. cheopis fleas were used in all tests (more than a total of 5,240 nymphs and 4,860 fleas were exposed to the compounds). The inner surface of 2-dram friction cap vials were treated with the compound/acetone solution, or acetone only as a control, and left to air-dry overnight (see also, Panella et al., J. Med. Entomol., 42(3):352-358, 2005. Three to 4 holes were made in the plastic cap to allow for air exchange. Nymphal ticks and adult fleas were then placed directly into the vials using forceps. Vials containing ticks or fleas were placed in desiccators for 24 h at 21° C. and 90% RH. Morbidity and mortality was recorded at 1, 2, 4, 8, and 24 h after initial exposure.

[7] = test system: Culex p. pipiens; assay: Mosquito susceptibility, serial dilutions (Example 8); details: in vivo
[8] = test system: Ixodes scapularis nymphal ticks; assay: Tick repellency bioassay; assay type: in vivo; details: listed as Nootkatone (Compound 7)
[9] = test system: adult I. scapularis ticks; assay: Treated-vial biocidal screening with 2% acetone solutions (Example 2), adult ticks, residual; assay type: in vivo, Ixodes scapularis; details: treated vials sat 4 wk; arthropods added for the final 24 h
Description: as §1, §2

[10] = test system: Aedes aegypti adults; assay: Residual activity, aged treated bottles, mosquitoes; assay type: in vivo
Description: Adult mosquitoes were tested using the bottle bioassay method of Brogden and McAllister (J. Am. Mosq. Control Assoc., 14:159–64, 1998) with minor modifications. Natural product extracts were two-fold serially diluted for a total of 8 concentrations ranging from 0.002% to 0.25% in 1.5 ml of acetone. Individual dilutions were added to 250 ml Wheaton glass bottles and capped. Bottles were manipulated to evenly coat all inner surfaces. The caps were removed and bottles were allowed to air-dry overnight. Once bottles were completely dry, 10–50 (in some tests 25–50) adult mosquitoes were aspirated into the bottles. Mosquitoes were held in the bottles for 24 h at 23° C. and 85% RH. Morbidity and mortality were recorded at 15, 30, 45, and 60 min and 24 hour intervals. One bottle for each replicate was treated with acetone only and served as a control. The dose-mortality data was evaluated with probit analysis, using the LdP Line software, to determine LC50 and LC90 values.

[11] = test system: Ae. aegypti adults; assay: Adult mosquito bottle bioassay; assay type: in vivo, Aedes aegypti
[12] = test system: Xenopsylla cheopis adults; assay: Residual activity, aged treated vials, fleas; assay type: in vivo
Description: as §3

[13] = 4 weeks after treatment, NE = not effective
[14] = 1 h after compound applied to applicator
[15] = 4 h after compound applied to applicator
[16] = Aedes aegypti adult mosquitoes, alone, or 1:1 with carvacrol (in parenthesis)

C=C(C)[C@@H]1CCC2=CC(=O)C[C@@H](C)[C@]2(C)C1 [Compound 7, Nootkatone]
mortality level [1]: < 100% | X. cheopis adults (5 wk), number killed/number tested [2]: 5/5 | A. aegypti LD50 [3]: <4.5 × 10^−3 | I. scapularis nymphs (72 h), number killed/number tested [4]: 5/5 | residual activity [5]: considerable biological activity through the four week time period | Slope, residual activity ([6]; 1 week after treatment): 1.682 | Slope, residual activity ([6]; 2 weeks after treatment): 1.586 | Slope, residual activity ([6]; 4 weeks after treatment): 1.609 | LC50, residual activity [6, 13]: 0.026 percent concentration, wt:vol | C. pipiens. LD50 [7]: <4.5 × 10^−3 | Slope (±SEM) ([8]; 1 h): 1.288 (±0.275) | RD50 [8, 14]: 0.186 % (wt:vol) | RD95 [8, 14]: 3.514 % (wt:vol) | Slope (±SEM) ([8]; 4 h): 1.291 (±0.277) | RD50 [8, 15]: 0.177 % (wt:vol) | RD95 [8, 15]: 3.319 % (wt:vol) | I. scapularis adults (4 wk), number killed/number tested [9]: 5/5 | LC90, residual activity ([10]; 1 week after treatment): 0.054 percent concentration, wt:vol | Slope, residual activity ([10]; 1 week after treatment): 3.043 | Slope, residual activity ([10]; 2 weeks after treatment): 3.342 | LC90, residual activity ([10]; 2 weeks after treatment, NE = not effective): 0.046 percent concentration, wt:vol | Slope, residual activity ([10]; 4 weeks after treatment): 2.698 | LC90, residual activity [10, 13]: 0.038 percent concentration, wt:vol | LC90 ([11]; 24 h exposure, NE = not effective at concentrations tested): 0.0092 percent concentration, wt:vol | Slope ([11]; 24 h exposure, probit): 6.22 | LC50 (15 min) [11, 16]: 0.035 % (wt:vol) | LC50 (24 h) [11, 16]: 0.0057 % (wt:vol) | LC90 (15 min) [11, 16]: 0.119 % (wt:vol) | LC90 (24 h) [11, 16]: 0.0092 % (wt:vol) | LC50 (15 min) ([11]; Aedes aegypti adult mosquitoes, alone, or 1:1 with carvacrol (in parenthesis), listed as compound 7): 0.035 % (wt:vol) | Slope, residual activity ([12]; 1 week after treatment): 2.546 | LC90, residual activity ([12]; 1 week after treatment, NE = not effective): 0.05 percent concentration, wt:vol | Slope, residual activity ([12]; 2 weeks after treatment): 2.033 | LC50, residual activity ([12]; 4 weeks after treatment): 0.031 percent concentration, wt:vol
